Data on 2 compounds can be found in patent publication US4141986A, “Antibiotics 890A2 and 890A5” (Merck & Co., Inc., priority 1977, dated 1979).

The test system of data set [1] is Staphylococcus aureus ATCC 6538 P. The data set can be described thus: In vitro antibacterial spectrum profile, agar diffusion. It counts as cell-based. A general note: Agar diffusion results depend on both activity and mobility in agar.
Data set [2] in a line: Solubility in water. It counts as physicochemical. Particulars: sodium salt, white powder as lyophilized.
The subject of data set [3] is Salmonella gallinarum MB-1287. Put plainly: In vitro antibacterial spectrum profile, agar diffusion. It counts as cell-based. The note with it: Salmonella enterica, read-out: Inhib. Zone Diam.
The subject of data set [4] is Corynebacterium pseudodiph. ATCC 9742. The description is as above. It counts as cell-based. The note with it: read-out: Inhib. Zone Diam.
Data set [5] deals with Salmonella schottmuellari MB-2837. Put plainly: In vivo protection of intraperitoneally infected mice. Particulars: ip, at the time of infection and again 6 hours later; sample of 59 units/ml.; survival data of the seventh day. The procedure:
In determining the in vivo activity, antibiotic 890A2 is dissolved in 0.15M NaCl, 0.01M sodium phosphate, pH 7.0, and diluted with water to provide five fourfold concentrations of drug for testing. Female white Swiss mice, averaging about 21 g. in weight, were infected intraperitoneally with the test organism suspended in broth. The numbers of organisms injected were determined by standard plate-count techniques. At the time of infection and again 6 hours later, certain of the mice were treated intraperitoneally with the antibiotic. Five mice were used for each concentration of drug tested. An additional two mice, not infected, were treated with the antibiotic to determine whether the amount of agent injected was toxic. Controls of five mice for each of several dilutions of the infecting culture were included in each test in order to calculate the numbers of organisms that were lethal to 50% of the infected, untreated mice (LD50). This calculation was made using survival data of the seventh day after infection, at which time the amount of drug that should protect 50% of the infected mice (ED50) also was calculated.
All animals receiving this challenge and not treated with antibiotic died within 48 hours of the infection. The efficacy of antibiotic 890A2, having a potency of 59 units/ml., against Salmonella schottmuellari MB-2837 is set forth below: […]

For data set [6], the system named is Erwinia atroseptica ATCC 4466. Put plainly: In vitro antibacterial spectrum profile, agar diffusion. It counts as cell-based. The note with it: Pectobacterium atrosepticum, ATCC4466, read-out: Inhib. Zone Diam.
The subject of data set [7] is Difco penicillinase and lactamase(s) produced by a cephalosporin C-resistant strain of Vibrio percolans (MB-2566). Put plainly: Inactivation by penicillinase and lactamase(s), from the antibiotic spectra. Format: cell-based. Particulars: judged from the spectra of Table III. The procedure:
The test to determine the antibiotic spectrum profile of antibiotic 890A2 is carried out by saturating 1/4 inch diameter paper discs in a solution of antibiotic 890A2 in 5% methanol at a concentration of 5 μg./ml.; air drying the saturated paper discs and placing them on the surface of 100 × 15 mm. petri plates containing 5 ml. of seeded nutrient agar plus 0.2% yeast extract.
The test to determine the antibiotic spectrum profile of antibiotic 890A5 is carried out by application of a 0.015 ml. droplet of a 33 μg./ml. aqueous solution of the antibiotic on the surface of a 100 × 15 mm. petri plate containing 5 ml. of seeded nutrient agar plus 0.2% yeast extract.
The spectra of antibiotic 890A2 and 890A5 are quite similar, except for the resistance of 890A5 to inactivation by Difco penicillinase and by lactamase(s) produced by a cephalosporin C-resistant strain of Vibrio percolans (MB-2566).

[8] abbreviates: 890A2 5 μg./ml., 1/4 inch paper disc.
Setting [9] is: 890A5 33 μg./ml., 0.015 ml. droplet.

In the case of `CC(=O)NC=CSC1=C(C(=O)O)N2C(=O)C(C(C)O)C2C1` (centres unmarked) [Antibiotic 890A2], the zone of inhibition at 5 µg/mL was found to be 34 mm in data set [1] (ATCC6538, read-out: Inhib. Zone Diam.); 33 mm in data set [3] (setting [8]); 35 mm in data set [4] (ATCC9742, 890A2 5 μg./ml., 1/4 inch paper disc); 26 mm in data set [6] (setting [8]). Further, in data set [2], the solubility in water entry is reported as “very soluble in water”. Moreover, in data set [5], the “ED50 × 2 doses” value came out at 19 Units.
For the compound `CC(=O)NC=CSC1=C(C(=O)O)N2C(=O)C(C(C)O)C2C1` (centres unmarked) [Antibiotic 890A5], the zone of inhibition at 33 µg/mL in data set [1] (ATCC6538, 890A5 33 μg./ml., 0.015 ml. droplet, read-out: Inhib. Zone Diam.) came out at 34 mm; in data set [3] (setting [9]), 26 mm; in data set [4] (ATCC9742, 890A5 33 μg./ml., 0.015 ml. droplet) it was 33 mm; in data set [6] (setting [9]) it was 21 mm. Also, the “inactivation by Difco penicillinase and by lactamase(s) of Vibrio percolans MB-2566” value in data set [7] is “resistance”.
